Results: article PMC12880737 (Journal of medicinal chemistry, 2025)

Assays:
[1] = molecular target: T1, GAS41 YEATS domain (Homo sapiens, UniProt O95619); experiment: Fluorescence polarization competition assay with H3K23crK27cr-FAM probe; assay type: binding
Target sequence in this assay (O95619 1-148): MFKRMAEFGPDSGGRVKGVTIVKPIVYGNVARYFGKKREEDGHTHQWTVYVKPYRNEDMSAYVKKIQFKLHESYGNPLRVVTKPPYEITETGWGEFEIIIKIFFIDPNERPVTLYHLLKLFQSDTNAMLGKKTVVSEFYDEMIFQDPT

[2] = molecular target: his6-GAS41 YEATS (13-158) (Homo sapiens, UniProt O95619); experiment: AlphaLISA competition assay with 21-biot probe
[3] = test system: H1299 cells; experiment: Wound healing assay; assay type: cell-based; conditions: H1299, 24 h
[4] = molecular target: NanoLuc-tagged BRD4-BD1 and Halo-tagged histone H3.3 (Homo sapiens, UniProt O60885); experiment: BRD4-BD1 NanoBRET assay; assay type: cell-based; conditions: Figure S3
[5] = molecular target: T1, GAS41 YEATS domain; experiment: 1H-15N HSQC NMR binding experiments; conditions: 50 μM 15N GAS41 YEATS, 100 μM compound
Target sequence in this assay (O95619 18-190): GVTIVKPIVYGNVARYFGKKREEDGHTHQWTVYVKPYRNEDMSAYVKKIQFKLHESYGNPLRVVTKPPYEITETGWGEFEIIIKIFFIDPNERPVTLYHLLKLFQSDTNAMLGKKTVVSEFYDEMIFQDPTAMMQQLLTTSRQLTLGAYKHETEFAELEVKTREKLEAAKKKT

[6] = molecular target: NanoLUC-GAS41 and Halo-H3.3 (Homo sapiens, UniProt O95619); experiment: GAS41 NanoBRET assay in HEK293T cells; assay type: cell-based
Sequence of NanoLUC-GAS41 and Halo-H3.3 (O95619 whole entry): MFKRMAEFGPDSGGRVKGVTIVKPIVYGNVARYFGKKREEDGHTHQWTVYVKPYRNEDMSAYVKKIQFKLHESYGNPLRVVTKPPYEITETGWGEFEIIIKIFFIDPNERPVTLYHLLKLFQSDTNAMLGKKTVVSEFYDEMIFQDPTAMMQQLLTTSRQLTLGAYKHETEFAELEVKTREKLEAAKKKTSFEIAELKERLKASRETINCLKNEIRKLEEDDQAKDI

[7] = test system: CDKN1A; experiment: CDKN1A gene expression by RT-qPCR in H1299 cells; assay type: cell-based; conditions: 7 days

Sequence of his6-GAS41 YEATS (13-158) (O95619 13-158): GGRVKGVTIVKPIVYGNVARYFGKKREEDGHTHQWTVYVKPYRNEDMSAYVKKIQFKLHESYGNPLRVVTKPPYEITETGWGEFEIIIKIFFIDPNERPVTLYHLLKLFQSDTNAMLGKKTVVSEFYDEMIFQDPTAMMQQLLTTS

| SMILES | IC50 [1] | IC50 [2] | further results |
| --- | --- | --- | --- |
| O=C(NCc1ccc(-c2cnc(C3CN(C(=O)c4ccc(NC(=O)[C@@H]5CCCN5)s4)C3)s2)cc1)C1CCCC1 [Compound 30, (S)-N-(5-(3-(5-(4-(cyclopentanecarboxamidomethyl)phenyl)thiazol-2-yl)azetidine-1-carbonyl)thiophen-2-yl)pyrrolidine-2-carboxamide] | 1300 ± 400 nM | 600 ± 80 nM |  |
| O=C(NCc1ccc(-c2cnc(C3CN(C(=O)c4ccc(NC(=O)[C@@H]5CCCN5)s4)C3)s2)cc1)c1ccccc1 [Compound 31, (S)-N-(5-(3-(5-(4-(benzamidomethyl)phenyl)thiazol-2-yl)azetidine-1-carbonyl)thiophen-2-yl)pyrrolidine-2-carboxamide] | 1100 ± 10 nM | 200 ± 80 nM |  |
| CC(=O)NCc1ccc(-c2cnc(C3CN(C(=O)c4ccc(NC(=O)[C@@H]5CCCN5)s4)C3)s2)c(Cl)c1 [Compound 35, (S)-N-(5-(3-(5-(4-(acetamidomethyl)-2-chlorophenyl)thiazol-2-yl)azetidine-1-carbonyl)thiophen-2-yl)pyrrolidine-2-carboxamide] | 3400 ± 130 nM | 1400 ± 330 nM |  |
| CCC(=O)NCc1ccc(-c2cnc(C3CN(C(=O)c4ccc(NC(=O)[C@@H]5CC(C)(C)CN5)s4)C3)s2)c2ccccc12 [Compound 39, (S)-4,4-dimethyl-N-(5-(3-(5-(4-(propionamidomethyl)naphthalen-1-yl)thiazol-2-yl)azetidine-1-carbonyl)thiophen-2-yl)pyrrolidine-2-carboxamide] |  |  | scratch healing [3]: slowed scratch healing; activity in BRD4-BD1 NanoBRET assay [4]: no activity |
| CCC(=O)NCc1ccc(-c2cnc(C3CN(C(=O)c4cnc(NC(=O)[C@@H]5CC(C)(C)CN5)s4)C3)s2)c2ccccc12 [Compound 40, (S)-4,4-dimethyl-N-(5-(3-(5-(4-(propionamidomethyl)naphthalen-1-yl)thiazol-2-yl)azetidine-1-carbonyl)thiazol-2-yl)pyrrolidine-2-carboxamide] | 118000 ± 7700 nM | > 50000 nM | amide perturbations in 1H-15N HSQC NMR [5]: no perturbations; IC50 [6]: > 25000 nM; levels of CDKN1A [7]: but not DLG-41nc strongly enhanced levels of CDKN1A |
| Cc1sc2c(c1C)C(c1ccc(Cl)cc1)=N[C@@H](CC(=O)OC(C)(C)C)c1nnc(C)n1-2 [JQ1, reference compound] |  |  | activity in GAS41 BRET assay ([6]; Figure S3): no activity |
